Source: paper PMC9653995, “New Positive TRPC6 Modulator Penetrates Blood–Brain Barrier, Eliminates Synaptic Deficiency and Restores Memory Deficit in 5xFAD Mice” (International Journal of Molecular Sciences, 2022)

What was measured:
[1] = tested on: hippocampal slices from 8-month-old 5xFAD mice; assay: LTP induction (HFS) in hippocampal Schaffer collateral-CA1 synapses of brain slices, fEPSP recording; type: cell-based, mouse; conditions: 100 nM, normalized to baseline, mean ± SEM
Procedure: Long-term potentiation (LTP) is considered a cellular mechanism for long-term memory. LTP deficits have been reported in AD mouse models including 5xFAD mice. We examined whether C20 could improve synaptic plasticity in hippocampal slices of 5xFAD mice. LTP was induced in hippocampal Schaffer collateral-CA1 synapses by high-frequency stimulation (HFS).
Mouse transcardial perfusion was performed with 0–2 °C of holding buffer containing (in mM): 124 NaCl, 2.5 KCl, 24 NaHCO3, 1.2 NaH2PO4, 5 HEPES, 0.5 CaCl2*2H2O, 10 MgCl2*7H2O, 3 Na-pyruvate, and 12.5 D-glucose. […]
After incubation, the slices were placed in a recording chamber and perfused with a constant flow of recording buffer saturated with carbogen. […] Field excitatory postsynaptic potentials (fEPSPs) were recorded from CA1 stratum radiatum in recording buffer (124 mM NaCl, 2.5 mM KCl, 24 mM NaHCO3, 1.2 mM NaH2PO4, 5 mM HEPES, 2 mM CaCl2*2H2O, 0.8 mM MgCl2*7H2O, and 12.5 mM D-glucose) using borosilicate glass microelectrodes (300–400 kΩ) filled with recording buffer. […] Electrophysiological field responses were amplified and controlled using a Multiclamp 700B (Molecular Devices, Sunnyvale, CA, USA), digitized by Digidata 1440A (Molecular Devices, USA) and analyzed by pClamp 10.6 (Axon Instruments, Union City, California, USA). […] The amplitude and slope of the rising phase of EPSP at a level of 20–80% of the peak amplitude were measured. […]

[2] = In vitro stability in pooled mouse blood plasma; type: in vitro ADME; conditions: 1 µM, 37 °C
Procedure: The stability of C20 was assessed during incubation with pooled mouse plasma samples for 4 h at 37 °C. To confirm the activity of blood plasma enzymes in the control substance, propantheline (Figure 4A) was used.
The compound C20, at a final concentration of 1 μM, was incubated in mouse plasma at 37 °C with moderate shaking at 300 rpm in a shaker-incubator. After 0, 15, 30, 60 and 240 min, the samples were mixed, aliquots were obtained, and the samples were analyzed by HPLC-MS/MS. Propantheline was used as a control compound. Incubation of compounds with plasma samples was carried out in duplicate. Overall, 100% was obtained as the amount of a substance determined using a mass spectrometer in blood plasma in a 0 min incubation time period.
A total of 3 µL of 100-fold C20 or propantheline substance (0.1 mM) was added to 297 µL of blood plasma preheated to 37 °C to a final concentration of 1 µM.
Aliquots of 30 μL for the time point T = 0 were transferred into microtubes with a capacity of 1.1 mL pre-filled with 180 μL of chilled MeCN with an internal standard of Tolbutamide (IS) at a concentration of 50 ng/mL. Mixed and kept at +4 °C for 15 min. […]
The values of the areas of chromatographic peaks of substances in the studied samples normalized to the area of IS were used for calculations. The 100% of the tested substance from the initial amount was determined at T = 0 min of incubation. […]

initial amount remaining in mouse blood plasma ([2]; after 4 h incubation): about 62% | concentration remaining in mouse blood plasma ([2]; during the first hour of incubation): above 85%
SMILES: COc1cc2c(cc1OC)C(c1cc3ccccc3oc1=O)=NC(C)(C)C2 [C20, 3-(3-,4-Dihydro-6,7-dimethoxy-3,3-dimethyl-1-isoquinolinyl)-2H-1-benzopyran-2-one]
average fEPSP slope 30–40 min after HFS ([1]; 8-month-old 5xFAD slices, 5xFAD alone 115.5 ± 3.0%): 149.4 ± 9.7% | average fEPSP slope 30–40 min after HFS ([1]; WT slices, WT alone 168.7 ± 4.8%): 161.4 ± 9.6%
